These results are taken from patent publication US6495715B2, “Calcium channel blockers” (Warner-Lambert Company, priority 1997, dated 2002).

The melting point is the temperature, or range, at which the solid turns liquid. By IC50 is commonly meant the concentration that gives 50% inhibition. Low readings indicate greater potency in that assay, high ones weaker potency in that assay.

Series [1] deals with T1, N-type Ca2+ channel (Homo sapiens, UniProt Q00975).
T1 construct: host or cells: IMR-32 cells, differentiated with dibutyryl cAMP and bromodeoxyuridine
Nature of the series: Measurement of N-type Ca2+ channel blocking potencies in IMR-32 cells using the fluorescent Ca2+ indicator Indo-1. The series is classed as cell-based. Particulars: for IC50: K+-stimulated Ca2+ flux, 5 μM nitrendipine to block L-type channels; for inhibition at 1 µM: 1 μM compound, read-out: IMR 32 % of Blockade @ 1 μM; for inhibition at 1 µM / inhibition at 10 µM: 5 μM nitrendipine; for inhibition at 10 µM: 10 μM compound, read-out: IMR 32 % of Blockade @ 10 μM. As to the method: Measurement of N-type Ca^2+ Channel Blocking Potencies of Compounds in IMR-32 Cells Using the Fluorescent Ca^2+Indicator Indo-1
IMR-32 cells are a human tumoral cell line of neural origin. […] Calcium flux into these cells may be induced by stimulation with elevated potassium concentrations. The L-channel component of calcium flux may be blocked by adding 5 μM nitrendipine. The remaining component of calcium entry into the IMR-32 cells is due to calcium flux through N-type calcium channels. Intracellular calcium concentrations are measured using the fluorescent calcium indicator Indo-1. The effect of drug concentration on calcium uptake is studied.
The IMR-32 cell line was obtained from the American Type Culture Collection (Rockville, Md.). Cells were grown in Eagle's Minimum Essential Medium with Earle's salts supplemented with 10% fetal bovine serum, 2 mM L-Gln and antibiotic/antimycotic mixture (Gibco). […] After 7 to 13 days of differentiation, cells were detached using 0.5 mM EDTA and loaded with 5 μM Indo-1 acetoxymethyl ester (Molecular Probes, Eugene, Oreg.) at 30° C. for 45 minutes. Loaded cells were washed twice, resuspended (˜10^7 cells/mL) in assay buffer (10 mM HEPES/Tris pH 7.4 in Hank's Balanced Salt Solution without bicarbonate or phenol red containing 0.5% bovine serum albumin) and kept on ice until use. Fluorescence measurements were carried out in a Photon Technology International (PTI, South Brunswick, N.J.) Model RF-F3004 spectrofluorometer with dual emission monochromators using excitation at […] and emission at 400 and 490 nm. The instrument was equipped with a thermostated cuvette holder with stirring capabilities as well as with a computer-controlled pump which allowed for reagent addition during measurement. Instrument control and data collection was done by PTI's OSCAR software running on an IBM compatible computer. Different concentrations of the test compounds (60 μL in dimethyl sulfoxide) were added to 5.94 mL of assay buffer containing approximately 3×10^6 loaded cells, and 5 μM Nitrendipine (in […] EtOH) to block L-type Ca^2+ channels. Samples were incubated for 10 minutes at 30° C. and then aliquoted into three 10×10 mm disposable acrylic cuvettes. Emission signals at 400 and 490 nm were acquired from each cuvette at 30° C. for 50 seconds. At 20 seconds after the start of reading, cells were depolarized by the addition of 160 μL of stimulation solution (1 M KCl, 68 mM CaCl2) to the cuvette via the computer-controlled pump. Ratio of dual emission signals (400 nm/490 nm), which is proportional to intracellular Ca^2+ concentration, was plotted against time, and the difference between maximal response after stimulation and basal value (before stimulation) was determined. Values obtained in this way were plotted as a function of drug concentration. IC50 values of test compounds were calculated by fitting a four-parameter logistic function to the data using the least squares method.
A general note: A change in cytosolic calcium serves as a functional read-out for many receptors and channels.

Series [2] relates to DBA/2 mice. In words: Audiogenic seizure (anticonvulsant) test in DBA/2 mice. The format is in vivo. Particulars: Mus musculus, intravenous, sound-induced tonic seizures, tested 15 or 45 minutes after injection, read-out: DBA/2 mice % Protection. As to the method:
In vivo Biological Protocol:
A compound of the present invention was dissolved in water using 10% (weight/volume) Emulphor (GAF Corp., Wayne, N.J.) surfactant. Substances were administered by intravenous injection into the retro-orbital venous sinus. All testing was performed 15 minutes or 45 minutes after drug injection. All the male mice, 3-4 weeks old were obtained from Jackson Laboratories Bar Harbour, Me. Immediately before anticonvulsant testing, mice were placed upon a wire mesh, 4 inches square suspended from a steel rod. The square was slowly inverted through 180 degrees and mice observed for 30 seconds. Any mouse falling from the wire mesh was scored as ataxia.
Mice were placed into an enclosed acrylic plastic chamber (21 cm height, approximately 30 cm diameter) with a high-frequency speaker (4 cm diameter) in the center of the top lid. An audio signal generator (Protek model B-810) was used to produce a continuous sinusoidal tone that was swept linearly in frequency between 8 kHz and 16 kHz once each 10 msec. The average sound pressure level (SPL) during stimulation was approximately 100 dB at the floor of the chamber. Mice were placed within the chamber and allowed to acclimatize for 1 minute. DBA/2 mice in the vehicle-treated group responded to the sound stimulus (applied until tonic extension occurred, or for a maximum of 60 sec) with a characteristic seizure sequence consisting of wild running followed by clonic seizures, and later by tonic extension, and finally by respiratory arrest and death in 80% or more of the mice. In vehicle-treated mice, the entire sequence of seizures to respiratory arrest lasts approximately 15-20 seconds.
The incidence of all the seizure phases in the drug-treated and vehicle-treated mice was recorded, and the occurrence of tonic seizures were used for calculating anticonvulsant ED50 values by probit analysis. Mice were used only once for testing at each time and dose point.

Each structure is given as a SMILES string. Counter-ions that a name gives are not always drawn.

T1 sequence (Q00975 whole entry): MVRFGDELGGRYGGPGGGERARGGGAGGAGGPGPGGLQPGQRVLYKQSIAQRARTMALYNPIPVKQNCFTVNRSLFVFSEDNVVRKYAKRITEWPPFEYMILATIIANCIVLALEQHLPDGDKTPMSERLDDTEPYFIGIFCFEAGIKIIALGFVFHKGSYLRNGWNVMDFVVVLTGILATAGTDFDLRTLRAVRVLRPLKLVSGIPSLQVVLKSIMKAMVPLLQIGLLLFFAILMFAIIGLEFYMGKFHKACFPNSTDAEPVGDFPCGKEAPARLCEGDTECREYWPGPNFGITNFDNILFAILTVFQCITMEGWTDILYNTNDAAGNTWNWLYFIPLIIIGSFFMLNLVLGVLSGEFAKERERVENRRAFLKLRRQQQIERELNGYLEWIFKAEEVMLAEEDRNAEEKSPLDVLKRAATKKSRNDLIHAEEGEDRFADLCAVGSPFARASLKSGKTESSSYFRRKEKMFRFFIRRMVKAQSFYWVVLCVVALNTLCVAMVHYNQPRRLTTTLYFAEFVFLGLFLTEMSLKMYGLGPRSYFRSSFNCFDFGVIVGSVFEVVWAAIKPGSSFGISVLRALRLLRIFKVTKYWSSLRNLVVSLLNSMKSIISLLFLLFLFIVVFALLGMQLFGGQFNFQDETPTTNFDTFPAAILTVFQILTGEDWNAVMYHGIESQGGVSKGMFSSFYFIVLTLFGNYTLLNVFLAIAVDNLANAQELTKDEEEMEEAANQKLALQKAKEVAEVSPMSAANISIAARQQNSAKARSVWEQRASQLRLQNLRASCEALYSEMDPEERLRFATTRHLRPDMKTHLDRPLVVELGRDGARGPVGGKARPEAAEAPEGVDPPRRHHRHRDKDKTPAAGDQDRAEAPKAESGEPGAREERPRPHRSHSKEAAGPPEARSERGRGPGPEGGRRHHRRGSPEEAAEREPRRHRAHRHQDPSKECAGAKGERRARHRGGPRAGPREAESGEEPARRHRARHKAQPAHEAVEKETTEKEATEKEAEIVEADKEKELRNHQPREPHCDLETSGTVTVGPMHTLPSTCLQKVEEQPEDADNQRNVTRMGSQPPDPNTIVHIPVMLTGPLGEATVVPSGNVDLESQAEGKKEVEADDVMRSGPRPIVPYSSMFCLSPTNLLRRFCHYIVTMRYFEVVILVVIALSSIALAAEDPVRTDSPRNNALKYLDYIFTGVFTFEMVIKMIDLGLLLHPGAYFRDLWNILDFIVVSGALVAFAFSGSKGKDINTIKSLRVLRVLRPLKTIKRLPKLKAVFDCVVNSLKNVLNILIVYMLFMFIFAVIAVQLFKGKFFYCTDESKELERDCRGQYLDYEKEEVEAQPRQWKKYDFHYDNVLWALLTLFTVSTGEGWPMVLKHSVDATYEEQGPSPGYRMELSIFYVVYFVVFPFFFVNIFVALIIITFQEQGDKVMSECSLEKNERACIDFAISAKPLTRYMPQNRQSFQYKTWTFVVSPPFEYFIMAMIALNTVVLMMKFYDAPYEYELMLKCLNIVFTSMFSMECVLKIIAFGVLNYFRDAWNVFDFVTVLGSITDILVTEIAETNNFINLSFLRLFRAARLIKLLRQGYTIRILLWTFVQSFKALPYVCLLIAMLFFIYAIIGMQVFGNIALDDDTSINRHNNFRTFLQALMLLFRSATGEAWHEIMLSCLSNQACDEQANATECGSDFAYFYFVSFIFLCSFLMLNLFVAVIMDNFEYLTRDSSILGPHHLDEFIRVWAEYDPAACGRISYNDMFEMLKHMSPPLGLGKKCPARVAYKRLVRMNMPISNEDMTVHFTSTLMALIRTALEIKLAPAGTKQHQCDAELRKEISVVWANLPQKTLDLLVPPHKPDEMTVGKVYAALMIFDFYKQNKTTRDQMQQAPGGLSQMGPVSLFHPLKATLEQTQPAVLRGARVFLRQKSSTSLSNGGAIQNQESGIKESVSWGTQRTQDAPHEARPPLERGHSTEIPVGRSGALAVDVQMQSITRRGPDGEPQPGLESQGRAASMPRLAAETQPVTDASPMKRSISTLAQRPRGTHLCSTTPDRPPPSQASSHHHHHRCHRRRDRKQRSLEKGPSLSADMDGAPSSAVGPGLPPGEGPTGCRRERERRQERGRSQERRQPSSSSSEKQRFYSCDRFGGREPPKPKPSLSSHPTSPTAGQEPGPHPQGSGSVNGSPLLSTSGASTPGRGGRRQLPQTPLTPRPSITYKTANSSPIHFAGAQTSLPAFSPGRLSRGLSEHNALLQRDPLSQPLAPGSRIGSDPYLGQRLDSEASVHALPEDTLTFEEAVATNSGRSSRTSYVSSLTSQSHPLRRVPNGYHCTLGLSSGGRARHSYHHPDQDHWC
T1 sequence (P54289 25-956 partner limits assumed): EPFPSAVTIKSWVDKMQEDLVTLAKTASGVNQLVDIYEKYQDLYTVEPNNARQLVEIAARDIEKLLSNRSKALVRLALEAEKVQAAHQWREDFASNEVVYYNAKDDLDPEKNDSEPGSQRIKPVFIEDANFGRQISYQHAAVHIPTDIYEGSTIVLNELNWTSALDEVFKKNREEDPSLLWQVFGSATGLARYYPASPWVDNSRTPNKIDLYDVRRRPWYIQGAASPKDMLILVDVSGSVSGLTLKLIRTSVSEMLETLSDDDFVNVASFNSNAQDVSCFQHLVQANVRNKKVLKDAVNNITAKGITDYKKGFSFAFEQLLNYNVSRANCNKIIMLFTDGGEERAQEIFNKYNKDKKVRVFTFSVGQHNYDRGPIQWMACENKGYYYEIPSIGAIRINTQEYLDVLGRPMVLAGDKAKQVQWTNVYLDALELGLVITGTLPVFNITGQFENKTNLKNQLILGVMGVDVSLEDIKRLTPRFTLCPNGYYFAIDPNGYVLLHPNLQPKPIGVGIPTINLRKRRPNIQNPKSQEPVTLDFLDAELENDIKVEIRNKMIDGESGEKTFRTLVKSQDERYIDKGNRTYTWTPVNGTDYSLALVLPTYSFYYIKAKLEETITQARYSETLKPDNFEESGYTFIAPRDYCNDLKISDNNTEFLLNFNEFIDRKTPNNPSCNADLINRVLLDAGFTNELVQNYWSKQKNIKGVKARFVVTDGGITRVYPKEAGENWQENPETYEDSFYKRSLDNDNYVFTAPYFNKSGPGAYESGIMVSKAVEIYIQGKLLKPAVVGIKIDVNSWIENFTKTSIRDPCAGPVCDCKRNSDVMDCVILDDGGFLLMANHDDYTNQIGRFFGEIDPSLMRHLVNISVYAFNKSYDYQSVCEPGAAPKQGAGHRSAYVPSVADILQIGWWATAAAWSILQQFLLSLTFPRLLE
T1 sequence (P54289 957-1103 partner limits assumed): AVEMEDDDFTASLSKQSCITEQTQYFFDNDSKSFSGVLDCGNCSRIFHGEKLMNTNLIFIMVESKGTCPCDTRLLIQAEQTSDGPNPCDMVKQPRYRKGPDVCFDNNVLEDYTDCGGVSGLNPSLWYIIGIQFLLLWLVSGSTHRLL
T1 sequence (Q02641 whole entry partner): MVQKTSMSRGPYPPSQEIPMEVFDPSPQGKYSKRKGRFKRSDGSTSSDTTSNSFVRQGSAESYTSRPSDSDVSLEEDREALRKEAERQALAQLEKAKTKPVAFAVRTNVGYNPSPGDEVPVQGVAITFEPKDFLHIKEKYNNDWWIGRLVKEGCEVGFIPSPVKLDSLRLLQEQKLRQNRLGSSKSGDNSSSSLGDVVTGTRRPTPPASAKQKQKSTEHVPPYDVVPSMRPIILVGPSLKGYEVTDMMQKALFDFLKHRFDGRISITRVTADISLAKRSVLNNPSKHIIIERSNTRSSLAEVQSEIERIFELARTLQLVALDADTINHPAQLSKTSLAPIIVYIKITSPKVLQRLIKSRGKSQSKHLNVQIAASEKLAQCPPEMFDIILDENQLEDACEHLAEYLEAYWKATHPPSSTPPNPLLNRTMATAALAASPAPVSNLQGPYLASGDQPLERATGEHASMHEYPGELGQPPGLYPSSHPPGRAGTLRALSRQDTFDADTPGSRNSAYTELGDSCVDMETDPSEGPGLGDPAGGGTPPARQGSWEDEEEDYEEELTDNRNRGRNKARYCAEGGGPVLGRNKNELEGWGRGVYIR

Compound `CC(C)=CCN(c1ccc(OCc2ccccc2)cc1)C1CCN(C(=O)[C@H](CC(C)C)NC(=O)N2CCCCCC2)CC1` (as salt: hydrochloride) [Example 5, (S)-Azepane-1-carboxylic acid (1-{4-[(4-benzyloxy-phenyl)-(3-methyl-but-2-enyl)-amino]-piperidine-1-carbonyl}-3-methyl-butyl)-amide hydrochloride salt] had a melting point of 125 to 126 °C.
For `CC(C)=CCN(CCNC(=O)[C@H](CC(C)C)NC(=O)N1CCCCCC1)c1ccc(OCc2ccccc2)cc1` [Example 3, (S)-Azepane-1-carboxylic acid (1-{2-[(4-benzyloxy-phenyl)-(3-methyl-but-2-enyl)-amino]-ethylcarbamoyl}-3-methyl-butyl)-amide], the melting point amounted to 71 °C. In series [1], this compound returned an IC50 of 0.69 µM.
On the same counts, the results for `CC(C)=CCN(CCCNC(=O)[C@H](CC(C)C)NC(=O)N1CCCCCC1)c1ccc(OCc2ccccc2)cc1` [Example 4, (S)-Azepane-1-carboxylic acid (1-{3-[(4-benzyloxy-phenyl)-(3-methyl-but-2-enyl)-amino]-propylcarbamoyl}-3-methyl-butyl)-amide] are 48 to 52 °C and 0.75 µM.
Turning to `CC(C)C[C@H](NC(=O)N1CCCCCC1)C(=O)NCCN(c1ccc(OCc2ccccc2)cc1)C1C=CCCC1` (stereo partly drawn) [Example 6, (S)-Azepane-1-carboxylic acid (1-{2-[(4-benzyloxy-phenyl)-cyclohex-2-enyl-amino]-ethylcarbamoyl}-3-methyl-butyl)-amide], the melting point fell in the range of 79 to 80 °C. Besides, in series [1], the IC50 was determined as 0.84 µM.
For `CC(C)C[C@H](NC(=O)N1CCCCCC1)C(=O)NCCN(Cc1ccccc1)c1ccc(OCc2ccccc2)cc1` [Example 7, (S)-Azepane-1-carboxylic acid (1-{2-[benzyl-(4-benzyloxy-phenyl)-amino]-ethylcarbamoyl}-3-methyl-butyl)-amide], the melting point is 65 to 66 °C. Further, the IC50 in series [1] is 1.9 µM.
On to `CC(C)CCN(c1ccc(NCCC(C)O)cc1)C1CCN(C(=O)[C@H](CC(C)C)NC(=O)N2CCCCCC2)CC1` (stereo partly drawn) [Example 38, (S)-Azepane-1-carboxylic acid (1-{4-[[4-(3-hydroxy-butylamino)-phenyl]-(3-methyl-butyl)-amino]-piperidine-1-carbonyl}-3-methyl-butyl)-amide], for which, in series [2], the responders at 30 mg/kg worked out at 60%. In series [1], this compound showed a concentration for half-maximal inhibition (IC50) of 1.8 µM.
On the same counts, the results for `CC(C)CCN(c1ccc(NCc2ccc(N(C)C)cc2)cc1)C1CCN(C(=O)[C@H](CC(C)C)NC(=O)N2CCCCCC2)CC1` [Example 41, (S)-Azepane-1-carboxylic acid (1-{4-[[4-(4-dimethylamino-benzylamino)-phenyl]-(3-methyl-butyl)-amino]-piperidine-1-carbonyl}-3-methyl-butyl)-amide] are 20% and 0.49 µM.
`CC(C)CCN(c1ccc(NCc2ccc(O)cc2)cc1)C1CCN(C(=O)[C@H](CC(C)C)NC(=O)N2CCCCCC2)CC1` [Example 42, (S)-Azepane-1-carboxylic acid (1-{4-[[4-(4-hydroxy-benzylamino)-phenyl]-(3-methyl-butyl)-amino]-piperidine-1-carbonyl}-3-methyl-butyl)-amide]: in series [2], the responders at 30 mg/kg was 20%. In series [1], half-maximal inhibition (IC50) was put at 0.69 µM.
On to `CC(C)CCN(c1ccc(OCc2ccccc2)cc1)C1CCN(C(=O)[C@@H](N)CC(C)C)CC1` [Example 44, (S)-2-Amino-1-{4-[(4-benzyloxy-phenyl)-(3-methyl-butyl)-amino]-piperidin-1-yl}-4-methyl-pentan-1-one], for which the responders at 10 mg/kg in series [2] amounted to 20%. In series [1], the inhibition at 1 µM was found to be 50% and the inhibition at 10 µM turned out to be 100%.
The like results for `CC(C)=CCN(c1ccc(OCc2ccccc2)cc1)C1CCN(C[C@@H](N)CC(C)C)CC1` [Example 47, (S)-[1-(2-Amino-4-methyl-pentyl)-piperidin-4-yl]-(4-benzyloxy-phenyl)-(3-methyl-but-2-enyl)-amine] were, in that order, 80%, 44% and 100%.
